Laboratory results as given in article PMC5079539 (Organic & biomolecular chemistry, 2016).
pEC50: −log10 of the molar value. Like-named read-outs stand apart in the source and are kept apart here.

Legend:
[1] = test system: HCV 1b replicon; assay: Secondary HCV antiviral assay: qRT-PCR; format: cell-based
[2] = test system: cell line ET (luc-ubi-neo/ET), Huh7 human hepatoma cell line
[3] = test system: cell line ET (luc-ubi-neo/ET), Huh7 human hepatoma cell line; assay: Cytotoxicity in secondary assay; conditions: cellular ribosomal RNA as cytotoxicity control
[4] = Metabolic stability assay; format: in vitro ADME, human
[5] = cited from earlier work
[6] = in vitro; conditions: human
[7] = Cytotoxicity in secondary assay; conditions: human
[8] = qRT-PCR (TaqMan) of HCV RNA, single assay, quadruplicate wells
[9] = human liver microsomes, 0.1 µM, NADPH-regenerating system, 37 °C, mean of two independent experiments

CC(C)CCOC(=O)[C@H](COCc1ccccc1)NP(=O)(OC[C@H]1O[C@@H](n2ccc(=O)[nH]c2=O)[C@](C)(O)[C@@H]1O)Oc1ccccc1 (stereo partly drawn) [31e, 2′-C-Methyl-uridine-5′-[phenyl(α-isoamyl-β-O-benzyl-L-serine)]phosphate]
pEC50 [1, 8]: 8.00 | EC90 [1, 8]: 0.08 µM | CC50 [2]: 8 µM | CC50 [3]: 4.59 µM

CCCCCOC(=O)[C@H](COC(=O)C(C)C)NP(=O)(OC[C@H]1O[C@@H](n2ccc(=O)[nH]c2=O)[C@](C)(O)[C@@H]1O)Oc1ccccc1 (stereo partly drawn) [31g, 2′-C-Methyl-uridine-5′-[phenyl(α-amyl-β-O-isobutyryl-L-serine)]phosphate]
CC50 [2]: 6.79 µM

CC(C)CCOC(=O)CC[C@H](NP(=O)(OC[C@H]1O[C@@H](n2ccc(=O)[nH]c2=O)[C@](C)(O)[C@@H]1O)Oc1ccccc1)C(=O)OCCC(C)C (stereo partly drawn) [31b, 2′-C-Methyl-uridine-5′-[phenylbis(isoamyl-L-glutamyl)]phosphate]
pEC50 [1, 8]: 8.00 | EC90 [1, 8]: 0.13 µM | Clint ([4]; human, microsomes): 844.60 µl/min/mg protein | T1/2 ([4]; human, microsomes): 8 min | CC50 [2]: > 20 µM | CC50 [3]: 9.98 µM

COC(=O)[C@H](COCc1ccccc1)NP(=O)(OC[C@H]1O[C@@H](n2ccc(=O)[nH]c2=O)[C@](C)(O)[C@@H]1O)Oc1ccccc1 (stereo partly drawn) [31c, 2′-C-Methyl-uridine-5′-[phenyl(α-methoxy-β-O-benzyl-L-serine)]phosphate]
CC50 [2]: > 20 µM

CC(C)CCOC(=O)[C@H](COC(=O)C(C)C)NP(=O)(OC[C@H]1O[C@@H](n2ccc(=O)[nH]c2=O)[C@](C)(O)[C@@H]1O)Oc1ccccc1 (stereo partly drawn) [31h, 2′-C-Methyl-uridine-5′-[phenyl(α-isoamyl-β-O-isobutyryl-L-serine)]phosphate]
pEC50 [1, 8]: 7.70 | EC90 [1, 8]: 0.13 µM | Clint ([4]; human, microsomes): 763.70 µl/min/mg protein | T1/2 ([4]; human, microsomes): 9 min | CC50 [2]: 7.51 µM | CC50 [3]: 5.28 µM

CC(C)CCOC(=O)[C@@H](NP(=O)(OC[C@H]1O[C@@H](n2ccc(=O)[nH]c2=O)[C@](C)(O)[C@@H]1O)Oc1ccccc1)[C@@H](C)OCc1ccccc1 (stereo partly drawn) [31i, 2′-C-Methyl-uridine-5′-[phenyl(isoamyl-O-benzyl-L-threonine)]phosphate]
pEC50 [1, 8]: 7.40 | EC90 [1, 8]: 0.69 µM | Clint ([4]; human, microsomes): 699.00 µl/min/mg protein | T1/2 ([4]; human, microsomes): 10 min | CC50 [2]: > 20 µM | CC50 [3]: 7.27 µM

CC(C)CCOC(=O)[C@@H](NP(=O)(OC[C@H]1O[C@@H](n2ccc(=O)[nH]c2=O)[C@](C)(O)[C@@H]1O)Oc1ccccc1)[C@@H](C)OC(=O)C(C)C (stereo partly drawn) [31j, 2′-C-Methyl-uridine-5′-[phenyl(isoamyl-O-isobutyryl-L-threonine)]phosphate]
CC50 [2]: 11.5 µM

COC(=O)CC[C@H](NP(=O)(OC[C@H]1O[C@@H](n2ccc(=O)[nH]c2=O)[C@](C)(O)[C@@H]1O)Oc1ccccc1)C(=O)OC (stereo partly drawn) [31a, 2′-C-Methyl-uridine-5′-[phenylbis(methoxy-L-glutamyl)]phosphate]
CC50 [2]: > 20 µM

COC(=O)[C@H](COC(=O)C(C)C)NP(=O)(OC[C@H]1O[C@@H](n2ccc(=O)[nH]c2=O)[C@](C)(O)[C@@H]1O)Oc1ccccc1 (stereo partly drawn) [31f, 2′-C-Methyl-uridine-5′-[phenyl(α-methoxy-β-O-isobutyryl-L-serine)]phosphate]
CC50 [2]: > 20 µM

CCCCCOC(=O)[C@H](COCc1ccccc1)NP(=O)(OC[C@H]1O[C@@H](n2ccc(=O)[nH]c2=O)[C@](C)(O)[C@@H]1O)Oc1ccccc1 (stereo partly drawn) [31d, 2′-C-Methyl-uridine-5′-[phenyl(α-amyl-β-O-benzyl-L-serine)]phosphate]
Clint ([4]; human, microsomes): 496.80 µl/min/mg protein | T1/2 ([4]; human, microsomes): 14 min | CC50 [2]: 5.89 µM

C[C@@]1(O)[C@H](O)[C@@H](CO)O[C@H]1n1ccc(=O)[nH]c1=O [2’-C-Me-uridine, reference compound]
CC50 [2]: > 100 µM

CC(C)CCOC(=O)[C@H](Cc1ccc(OC(=O)C(C)C)cc1)NP(=O)(OCC1OC(n2ccc(=O)[nH]c2=O)C(C)(O)C1O)Oc1ccccc1 (stereo partly drawn) [31k, 2′-C-Methyl-uridine-5′-[phenyl(isoamyl-O-isobutyryl-L-tyrosine)]phosphate]
pEC50 [1, 8]: 7.40 | EC90 [1, 8]: 0.69 µM | Clint [4, 9]: 679.60 µl/min/mg protein | T1/2 [4, 9]: 10 min | CC50 ([2]; concentration decreasing cell viability by 50%, 72 hrs, CytoTox-ONE): > 20 µM | CC50 [3]: 18.4 µM

CC(C)OC(=O)[C@H](C)N[P@](=O)(OC[C@H]1O[C@@H](n2ccc(=O)[nH]c2=O)[C@](C)(F)[C@@H]1O)Oc1ccccc1 [Sofosbuvir, reference compound]
pEC50 ([1]; Hepatitis C virus): 7.15 | EC90 ([1]; Hepatitis C virus): 0.28 µM | cytotoxicity (devoid up to) [5]: > 100 µM | CC50 [6]: > 5 µM | CC50 [7]: > 5 µM
